Data as given in patent US12473295B2, “Substituted straight chain spiro derivatives” (Janssen Pharmaceutica NV, priority 2019, dated 2025).
Structures can show the parent of a compound that is named as a salt.

The compounds below were run against menin/MLL (terbium chelate-labeled menin, FITC-MBM1 peptide) (Homo sapiens (Human), UniProt O00255) (assay: Menin/MLL homogenous time-resolved fluorescence (HTRF) assay). Settings: HTRF-30 min incubation IC50, 30 min incubation.
Sequence of menin/MLL (terbium chelate-labeled menin, FITC-MBM1 peptide) (O00255 other isoform, or with tags, fused parts or gaps): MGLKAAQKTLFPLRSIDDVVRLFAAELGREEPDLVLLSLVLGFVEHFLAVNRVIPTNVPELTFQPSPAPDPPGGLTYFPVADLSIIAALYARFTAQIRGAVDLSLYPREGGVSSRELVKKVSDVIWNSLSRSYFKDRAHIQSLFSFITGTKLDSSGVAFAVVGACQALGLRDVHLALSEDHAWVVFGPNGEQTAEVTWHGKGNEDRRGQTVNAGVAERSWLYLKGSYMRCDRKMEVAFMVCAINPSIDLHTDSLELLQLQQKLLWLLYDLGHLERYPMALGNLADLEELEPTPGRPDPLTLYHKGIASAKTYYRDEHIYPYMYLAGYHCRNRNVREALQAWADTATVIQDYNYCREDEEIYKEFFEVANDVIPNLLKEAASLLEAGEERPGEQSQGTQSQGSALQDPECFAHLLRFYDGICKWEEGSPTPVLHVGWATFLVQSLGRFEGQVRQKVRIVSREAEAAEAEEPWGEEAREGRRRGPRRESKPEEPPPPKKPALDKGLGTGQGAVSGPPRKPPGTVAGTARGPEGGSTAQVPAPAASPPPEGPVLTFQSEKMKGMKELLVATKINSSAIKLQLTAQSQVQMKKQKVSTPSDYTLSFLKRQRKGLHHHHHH
Format: binding
An IC50 of 3.79 nM was found for COCCN(C)CCC[C@@H](C(C)C)N1CC2(CCN(c3ccnnc3Oc3ccc(F)cc3C(=O)N(C(C)C)C(C)C)C2)C1 (single isomer, unassigned) [Compound 89, (*S)-5-fluoro-N,N-isopropyl-2-((4-(2-(6-((2-methoxyethyl)(methyl)amino)-methylhexan-3-yl)-2,6-diazaspiro[3.4]octan-6-yl)pyridazin-3-yl)oxy)benzamide oxalate] in this work. An IC50 of 2.05 nM was found for COCCNCCC[C@@H](C(C)C)N1CC2(CCN(c3ncnnc3Oc3ccc(F)cc3C(=O)N(C(C)C)C(C)C)C2)C1 (single isomer, unassigned) [Compound 100, (*S)-5-fluoro-N,N-isopropyl-2-((5-(2-(6-((2-methoxyethyl)amino)-2-methylhexan-3-yl)-2,6-diazaspiro[3.4]octan-6-yl)-1,2,4-triazin-6-yl)oxy)benzamide oxalate] in this work. An IC50 of 9.45 nM was found for CCN(C(=O)c1cc(F)ccc1Oc1nncnc1N1CCC2(C1)CN([C@@H](CCCCN(C)C)C(C)C)C2)C(C)C (single isomer, unassigned) [Compound 212] in this work. An IC50 of 12.3 nM was found for CCN(C(=O)c1cc(F)ccc1Oc1nncnc1N1CCC2(C1)CN([C@H](C[C@@H](C)CN(C)CCOC)C(C)C)C2)C(C)C (single isomer, unassigned) [Compound 240, N-ethyl-5-fluoro-N-isopropyl-2-((5-(2-((3*R,5*R)-6-((2-methoxyethyl)(methyl)amino)-2,5-dimethylhexan-3-yl)-2,6-diazaspiro[3.4]octan-6-yl)-1,2,4-triazin-6-yl)oxy)benzamide fumarate] in this work. An IC50 of 7.39 nM was found for CCN(C(=O)c1cc(F)ccc1Oc1nncnc1N1CCC2(C1)CN([C@@H](C[C@H](C)CN(C)CCOC)C(C)C)C2)C(C)C (single isomer, unassigned) [Compound 243, N-ethyl-5-fluoro-N-isopropyl-2-((5-(2-((3*S,5*S)-6-((2-methoxyethyl)(methyl)amino)-2,5-dimethylhexan-3-yl)-2,6-diazaspiro[3.4]octan-6-yl)-1,2,4-triazin-6-yl)oxy)benzamide fumarate] in this work. An IC50 of 18.4 nM was found for CCN(C(=O)c1cc(F)ccc1Oc1nncnc1N1CCC2(C1)CN([C@@H](C[C@H](O)CN(C)C(C)C)C(C)C)C2)C(C)C (single isomer, unassigned) [Compound 324, N-ethyl-5-fluoro-2-((5-(2-((3*S,5*S)-5-hydroxy-6-(isopropyl(methyl)amino)-2-methylhexan-3-yl)-2,6-diazaspiro[3.4]octan-6-yl)-1,2,4-triazin-6-yl)oxy)-N-isopropylbenzamide fumarate] in this work. An IC50 of 18.5 nM was found for CCN(C(=O)c1cc(F)ccc1Oc1nncnc1N1CCC2(C1)CN([C@@H](C[C@@H](O)CN(C)C(C)C)C(C)C)C2)C(C)C (single isomer, unassigned) [Compound 326, N-ethyl-5-fluoro-2-((5-(2-((3*S,5*R)-5-hydroxy-6-(isopropyl(methyl)amino)-2-methylhexan-3-yl)-2,6-diazaspiro[3.4]octan-6-yl)-1,2,4-triazin-6-yl)oxy)-N-isopropylbenzamide fumarate] in this work. An IC50 of 5.49 nM was found for CCN(CC)C[C@@H](O)C[C@@H](C(C)C)N1CC2(CCN(c3ncnnc3Oc3ccc(F)cc3C(=O)N(CC)C(C)C)C2)C1 (single isomer, unassigned) [Compound 335, 2-((5-(2-((3*S,5*S)-6-diethylamino)-5-hydroxy-2-methylhexan-3-yl)-2,6-diazaspiro[3.4]octan-6-yl)-1,2,4-triazin-6-yl)oxy)-N-ethyl-5-fluoro-N-isopropylbenzamide fumarate] in this work. An IC50 of 4.57 nM was found for CCN(CC)C[C@@H](O)C[C@H](C(C)C)N1CC2(CCN(c3ncnnc3Oc3ccc(F)cc3C(=O)N(CC)C(C)C)C2)C1 (single isomer, unassigned) [Compound 337, 2-(5-(2-((3*R,5*S)-6-(diethylamino)-5-hydroxy-2-methylhexan-3-yl)-2,6-diazaspiro[3.4]octan-6-yl)-1,2,4-triazin-6-yl)oxy)-N-ethyl-5-fluoro-N-isopropylbenzamide fumarate] in this work. An IC50 of ~3.93 nM was found for CCN(C)C[C@@H](O)C[C@@H](C(C)C)N1CC2(CCN(c3ncnnc3Oc3ccc(F)cc3C(=O)N(CC)C(C)C)C2)C1 (single isomer, unassigned) [Compound 343, N-ethyl-2-((5-(2-((3*S,5S)-6-(ethyl(methyl)amino)-5-hydroxy-2-methylhexan-3-yl)-2,6-diazaspiro[3.4]octan-6-yl)-1,2,4-triazin-6-yl)oxy)-5-fluoro-N-isopropylbenzamide fumarate] in this work. An IC50 of 4.19 nM was found for CCN(C(=O)c1cc(F)ccc1Oc1nncnc1N1CCC2(C1)CN([C@@H](C[C@H](O)CN(C)CCOC)C(C)C)C2)C(C)C (single isomer, unassigned) [Compound 353, N-ethyl-5-fluoro-2-((5-(2-((3*S,5S)-5-hydroxy-6-((2-methoxyethyl)(methyl)amino)-2-methylhexan-3-yl)-2,6-diazaspiro[3.4]octan-6-yl)-1,2,4-triazin-6-yl)oxy)-N-isopropylbenzamide fumarate] in this work. An IC50 of 7.77 nM was found for CCN(C(=O)c1cc(F)ccc1Oc1nncnc1N1CCC2(C1)CN([C@@H](C[C@@H](O)CN(C)CCOC)C(C)C)C2)C(C)C (single isomer, unassigned) [Compound 357, N-ethyl-5-fluoro-2-((5-(2-((3*S,5R)-5-hydroxy-6-((2-methoxyethyl)(methyl)amino)-2-methylhexan-3-yl)-2,6-diazaspiro[3.4]octan-6-yl)-1,2,4-triazin-6-yl)oxy)-N-isopropylbenzamide fumarate] in this work. An IC50 of 5.42 nM was found for CC(C)[C@H](C[C@@H](O)CN(C)C)N1CC2(CCN(c3ncnnc3Oc3ccc(F)cc3C(=O)N(C(C)C)C(C)C)C2)C1 (single isomer, unassigned) [Compound 370, 2-((5-(2-((3*S,5*R)-6-(dimethylamino)-5-hydroxy-2-methylhexan-3-yl)-2,6-diazaspiro[3.4]octan-6-yl)-1,2,4-triazin-6-yl)oxy)-5-fluoro-N,N-diisopropylbenzamide fumarate] in this work. An IC50 of 15.4 nM was found for CCN(C(=O)c1cc(F)ccc1Oc1nncnc1N1CCC2(C1)CN([C@@H](C[C@@H](CN(C)C)OC)C(C)C)C2)C(C)C (single isomer, unassigned) [Compound 377, 2-((5-(2-((3*S,5*R)-6-(dimethylamino)-5-methoxy-2-methylhexan-3-yl)-2,6-diazaspiro[3.4]octan-6-yl)-1,2,4-triazin-6-yl)oxy)-N-ethyl-5-fluoro-N-isopropylbenzamide fumarate] in this work. An IC50 of 27.3 nM was found for CCN(C(=O)c1cc(F)ccc1Oc1nncnc1N1CCC2(C1)CN([C@@H](C[C@H](CN(C)C)OC)C(C)C)C2)C(C)C (single isomer, unassigned) [Compound 378, 2-((5-(2-((3*S,5*R)-6-(dimethylamino)-5-methoxy-2-methylhexan-3-yl)-2,6-diazaspiro[3.4]octan-6-yl)-1,2,4-triazin-6-yl)oxy)-N-ethyl-5-fluoro-N-isopropylbenzamide fumarate] in this work. An IC50 of 14.2 nM was found for CCN(C)C[C@H](C[C@@H](C(C)C)N1CC2(CCN(c3ncnnc3Oc3ccc(F)cc3C(=O)N(CC)C(C)C)C2)C1)OC (single isomer, unassigned) [Compound 379, N-ethyl-2-((5-(2-((3*S,5*S)-6-(ethyl(methyl)amino)-5-methoxy-2-methylhexan-3-yl)-2,6-diazaspiro[3.4]octan-6-yl)-1,2,4-triazin-6-yl)oxy)-5-fluoro-N-isopropylbenzamide] in this work. An IC50 of 40.5 nM was found for CCN(C)C[C@@H](C[C@@H](C(C)C)N1CC2(CCN(c3ncnnc3Oc3ccc(F)cc3C(=O)N(CC)C(C)C)C2)C1)OC (single isomer, unassigned) [Compound 380, N-ethyl-2-((5-(2-((3*S,5*R)-6-(ethyl(methyl)amino)-5-methoxy-2-methylhexan-3-yl)-2,6-diazaspiro[3.4]octan-6-yl)-1,2,4-triazin-6-yl)oxy)-5-fluoro-N-isopropylbenzamide] in this work. An IC50 of 9.52 nM was found for CCCN(C)C[C@@H](O)C[C@@H](C(C)C)N1CC2(CCN(c3ncnnc3Oc3ccc(F)cc3C(=O)N(CC)C(C)C)C2)C1 (single isomer, unassigned) [Compound 387, N-ethyl-5-fluoro-2-((5-(2-((3*S,5*S)-5-hydroxy-2-methyl-6-(methyl(propyl)amino)hexan-3-yl)-2,6-diazaspiro[3.4]octan-6-yl)-1,2,4-triazin-6-yl)oxy)-N-isopropylbenzamide fumarate] in this work. An IC50 of 10.3 nM was found for CCN(C)C[C@@H](O)C[C@@H](C(C)C)N1CC2(CCN(c3ncnnc3Oc3ccc(F)cc3C(=O)N(C(C)C)C(C)C)C2)C1 (single isomer, unassigned) [Compound 392, 2-((5-(2-((3*S,5*S)-6-(ethyl(methyl)amino)-5-hydroxy-2-methylhexan-3-yl)-2,6-diazaspiro[3.4]octan-6-yl)-1,2,4-triazin-6-yl)oxy)-5-fluoro-N,N-diisopropylbenzamide fumarate] in this work. An IC50 of 0.086 nM was found for CCN(C(=O)c1cc(F)ccc1Oc1nnc(OC)nc1N1CCC2(C1)CN([C@H](CCCN)C(C)C)C2)C(C)C [Compound 407, (R)-2-((5-(2-(6-amino-2-methylhexan-3-yl)-2,6-diazaspiro[3.4]octan-6-yl)-3-methoxy-1,2,4-triazin-6-yl)oxy)-N-ethyl-5-fluoro-N-isopropylbenzamide formate] in this work. An IC50 of 0.084 nM was found for COCCN(C)CCC[C@H](C(C)C)N1CC2(CCN(c3ncnnc3Oc3ccc(F)cc3C(=O)N(C)C(C)C)C2)C1 [Compound 415, (R)-5-fluoro-N-isopropyl-2-((5-(2-(6-((2-methoxyethyl)(methyl)amino)-2-methylhexan-3-yl)-2,6-diazaspiro[3.4]octan-6-yl)-1,2,4-triazin-6-yl)oxy)-N-methylbenzamide] in this work. An IC50 of ~0.035 nM was found for CCN(C(=O)c1cc(F)ccc1Oc1nnc(OC)nc1N1CCC2(C1)CN([C@H](CCCN(C)CCOC)C(C)C)C2)C(C)C [Compound 416, (R)-N-ethyl-5-fluoro-N-isopropyl-2-((3-methoxy-5-(2-(6-((2-methoxyethyl)(methyl)amino)-2-methylhexan-3-yl)-2,6-diazaspiro[3.4]octan-6-yl)-1,2,4-triazin-6-yl)oxy)benzamide formate] in this work.

What follows are compounds tested on MEIS1 mRNA (assay: MEIS1 mRNA expression assay (Quantigene Singleplex) in MOLM14 cells). Settings: Homo sapiens, MOLM-14, 48 h, 48 hours incubation.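 Further: MEIS1 transcript levels read by probe hybridization and normalized to RPL28 mRNA, with IC50 fitted to fold changes across a rising compound concentration series.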
Format: cell-based, human
CCN(CC)C[C@@H](O)C[C@H](C(C)C)N1CC2(CCN(c3ncnnc3Oc3ccc(F)cc3C(=O)N(CC)C(C)C)C2)C1 (single isomer, unassigned) [Compound 337, 2-(5-(2-((3*R,5*S)-6-(diethylamino)-5-hydroxy-2-methylhexan-3-yl)-2,6-diazaspiro[3.4]octan-6-yl)-1,2,4-triazin-6-yl)oxy)-N-ethyl-5-fluoro-N-isopropylbenzamide fumarate] was tested, and the IC50 was > 1000 nM. An IC50 of 530 nM was found for CCN(C)C[C@@H](O)C[C@@H](C(C)C)N1CC2(CCN(c3ncnnc3Oc3ccc(F)cc3C(=O)N(CC)C(C)C)C2)C1 (single isomer, unassigned) [Compound 343, N-ethyl-2-((5-(2-((3*S,5S)-6-(ethyl(methyl)amino)-5-hydroxy-2-methylhexan-3-yl)-2,6-diazaspiro[3.4]octan-6-yl)-1,2,4-triazin-6-yl)oxy)-5-fluoro-N-isopropylbenzamide fumarate] in this work. An IC50 of 380 nM was found for CCN(C(=O)c1cc(F)ccc1Oc1nnc(OC)nc1N1CCC2(C1)CN([C@H](CCCN)C(C)C)C2)C(C)C [Compound 407, (R)-2-((5-(2-(6-amino-2-methylhexan-3-yl)-2,6-diazaspiro[3.4]octan-6-yl)-3-methoxy-1,2,4-triazin-6-yl)oxy)-N-ethyl-5-fluoro-N-isopropylbenzamide formate] in this work. An IC50 of 49 nM was found for CCN(C(=O)c1cc(F)ccc1Oc1nnc(OC)nc1N1CCC2(C1)CN([C@H](CCCN(C)CCOC)C(C)C)C2)C(C)C [Compound 416, (R)-N-ethyl-5-fluoro-N-isopropyl-2-((3-methoxy-5-(2-(6-((2-methoxyethyl)(methyl)amino)-2-methylhexan-3-yl)-2,6-diazaspiro[3.4]octan-6-yl)-1,2,4-triazin-6-yl)oxy)benzamide formate] in this work.
